Data taken from US7488826B2, “Substituted pyrroline kinase inhibitors” (Janssen Pharmaceutica N.V., priority 2003, dated 2009).

What was measured:
Assay type in all cases: biochemical
[1] = biological target: T1, recombinant rabbit GSK-3β protein (Oryctolagus cuniculus, UniProt G1T8E2); test: Glycogen Synthase Kinase-3 Assay (33P-ATP phosphorylation of PPI-2)
T1 construct: purchased New England Biolabs
Experimental: Compounds were tested for the ability to inhibit recombinant rabbit GSK-3β protein using the following protocol. The test compound was added to a reaction mixture containing Protein Phosphatase Inhibitor-2 (PPI-2) (Calbiochem) (45 ng), rabbit GSK-3β protein (New England Biolabs) (0.75 units) and ^33P-ATP (1 μCi) in 50 mM Tris-HCl (pH 8.0), 10 mM MgCl2, 0.1% BSA, 1 mM DTT and 100 μM Sodium Vanadate. The mixture was reacted for 90 minutes at 30° C. to allow phosphorylation of the PPI-2 protein and then the protein in the reaction was precipitated using 10% TCA. The precipitated protein was collected on filter plates (MultiScreen-DV/Millipore), which were subsequently washed. Finally, the radioactivity was quantified using a TopCount Scintillation Counter (Packard). […] Staurosporine or Valproate, known inhibitors of GSK-3β, were used as a positive control for screening.

[2] = biological target: PKC-α (Homo sapiens, UniProt P17252); test: Protein Kinase C Histone-Based Assay; details: histone III substrate
Experimental: (§1) Compounds were evaluated for PKC isozyme selectivity using histone III as the substrate. PKC isozymes α, β-II or γ were added to a reaction mixture that contained 20 mM HEPES, (pH 7.4), 940 μM CaCl2, 10 mM MgCl2, 1 mM EGTA. 100 μg/mL phosphatidylserine, 20 μg/mL diacylglycerol, 30 μM ATP, […] [^33P]ATP and 200 μg/mL histone III. The reaction was incubated for 10 min at 30° C. Reactions were terminated by TCA precipitation and spotting on Whatman P81 filters. Filters were washed in 75 mM phosphoric acid and the radioactivity quantified by liquid scintillation counting.

[3] = biological target: PKC-βII (Homo sapiens, UniProt P05771); test: Protein Kinase C Histone-Based Assay; details: histone III substrate
Chain of PKC-βII (P05771 1-673 isoform P05771-2): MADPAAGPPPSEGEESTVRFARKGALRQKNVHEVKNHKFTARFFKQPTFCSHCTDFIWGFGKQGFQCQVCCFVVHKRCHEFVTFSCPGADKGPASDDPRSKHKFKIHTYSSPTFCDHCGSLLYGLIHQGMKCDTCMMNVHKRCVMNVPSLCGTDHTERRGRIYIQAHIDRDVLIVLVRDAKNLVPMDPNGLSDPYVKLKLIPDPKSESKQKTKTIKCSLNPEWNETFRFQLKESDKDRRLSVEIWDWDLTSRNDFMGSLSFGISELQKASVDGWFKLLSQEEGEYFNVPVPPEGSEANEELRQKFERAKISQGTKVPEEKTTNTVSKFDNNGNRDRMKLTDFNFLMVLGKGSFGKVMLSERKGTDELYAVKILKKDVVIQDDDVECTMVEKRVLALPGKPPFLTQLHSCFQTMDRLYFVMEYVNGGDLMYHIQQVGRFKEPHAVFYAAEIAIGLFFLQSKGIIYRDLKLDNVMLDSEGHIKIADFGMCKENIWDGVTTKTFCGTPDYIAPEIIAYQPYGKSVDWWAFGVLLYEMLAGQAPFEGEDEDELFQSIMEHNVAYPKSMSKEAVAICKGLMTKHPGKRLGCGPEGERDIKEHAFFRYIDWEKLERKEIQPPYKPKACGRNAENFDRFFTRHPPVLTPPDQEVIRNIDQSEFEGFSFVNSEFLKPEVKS
Experimental: as §1

[4] = biological target: PKC-γ (Homo sapiens, UniProt P05129); test: Protein Kinase C Histone-Based Assay; details: histone III substrate
Experimental: as §1

T1 sequence (G1T8E2 1-432): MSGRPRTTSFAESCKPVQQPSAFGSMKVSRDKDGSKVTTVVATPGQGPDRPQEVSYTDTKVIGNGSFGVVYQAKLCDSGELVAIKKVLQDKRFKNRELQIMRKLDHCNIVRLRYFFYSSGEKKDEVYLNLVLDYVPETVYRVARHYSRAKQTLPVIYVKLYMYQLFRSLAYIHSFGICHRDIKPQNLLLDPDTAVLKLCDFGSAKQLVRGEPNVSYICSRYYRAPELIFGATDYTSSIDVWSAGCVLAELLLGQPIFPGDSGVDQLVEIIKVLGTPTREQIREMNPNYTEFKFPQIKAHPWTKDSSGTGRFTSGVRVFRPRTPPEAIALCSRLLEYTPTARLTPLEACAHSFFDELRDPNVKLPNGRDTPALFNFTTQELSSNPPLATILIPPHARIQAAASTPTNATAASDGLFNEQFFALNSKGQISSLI

Compound	IC50 [1]	inhibition at 10 µM ([2]; @10 μM)	inhibition at 1 µM [3]	inhibition at 10 µM ([4]; @10 μM)	IC50 [2]	IC50 [4]
COCCCn1cc(C2=C(c3ccccc3OC)C(=O)NC2=O)c2cnccc21 [Cpd 1, 3-(2-Methoxyphenyl)-4-[1-(3-methoxypropyl)-1H-pyrrolo[3,2-c]pyridin-3-yl]-1H-pyrrole-2,5-dione]	0.0018 µM	31%	22%	25%	–	–
COCCCn1cc(C2=C(c3ccccc3Cl)C(=O)NC2=O)c2cnccc21 [Cpd 2, 3-(2-Chlorophenyl)-4-[1-(3-methoxypropyl)-1H-pyrrolo[3,2-c]pyridin-3-yl]-1H-pyrrole-2,5-dione]	0.02 µM	–	28%	–	2.51 µM	4.21 µM
